Test results published in ChEMBL document CHEMBL1137013, “Discovery of (2R)-2-(3-{3-[(4-Methoxyphenyl)carbonyl]-2-methyl-6-(trifluoromethoxy)-1H-indol-1-yl}phenoxy)butanoic acid (MK-0533): a novel selective peroxisome proliferator-activated receptor gamma modulator for the treatment of type 2 diabetes mellitus with a reduced potential to increase plasma …” (J Med Chem, 2009).
The source made the active and inactive calls. The calls are words filed in the database; no cut-off is given here.

How the values were obtained:
[1] = system: Liver microsomes; experiment: Protein binding in rat liver microsomes assessed per mg of protein; type: ADME, Microsome
[2] = system: Liver microsomes; experiment: Protein binding in human liver microsomes assessed per mg of protein; type: ADME, Microsome
[3] = target: T1, Peroxisome proliferator-activated receptor delta (Homo sapiens) (UniProt Q03181); experiment: Displacement of [3H2]nTZD4 from human recombinant GST-fused PPARdelta expressed in Escherichia coli at 10 uM by scintillation proximity assay
T1 sequence (whole entry): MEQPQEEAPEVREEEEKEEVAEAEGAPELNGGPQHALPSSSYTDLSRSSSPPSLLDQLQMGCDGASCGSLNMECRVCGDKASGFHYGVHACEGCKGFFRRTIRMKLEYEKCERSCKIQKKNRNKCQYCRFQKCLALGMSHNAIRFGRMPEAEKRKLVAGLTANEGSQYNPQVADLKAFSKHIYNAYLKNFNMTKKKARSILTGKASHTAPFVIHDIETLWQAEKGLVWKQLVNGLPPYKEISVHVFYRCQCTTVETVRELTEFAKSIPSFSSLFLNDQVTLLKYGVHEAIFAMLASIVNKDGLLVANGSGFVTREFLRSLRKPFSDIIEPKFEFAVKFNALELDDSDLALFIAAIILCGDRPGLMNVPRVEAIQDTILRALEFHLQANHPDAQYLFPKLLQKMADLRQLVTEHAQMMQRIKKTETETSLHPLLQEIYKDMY

[4] = target: T2, Peroxisome proliferator-activated receptor alpha (Homo sapiens) (UniProt Q07869); experiment: Agonist activity at human recombinant PPARalpha expressed in COS1 cells coexpressing GAL4 assessed as transcriptional activity at 3000 nM after 48 hrs by luciferase reporter gene assay; type: functional, cell-based; conditions: COS-1
T2 sequence (whole entry): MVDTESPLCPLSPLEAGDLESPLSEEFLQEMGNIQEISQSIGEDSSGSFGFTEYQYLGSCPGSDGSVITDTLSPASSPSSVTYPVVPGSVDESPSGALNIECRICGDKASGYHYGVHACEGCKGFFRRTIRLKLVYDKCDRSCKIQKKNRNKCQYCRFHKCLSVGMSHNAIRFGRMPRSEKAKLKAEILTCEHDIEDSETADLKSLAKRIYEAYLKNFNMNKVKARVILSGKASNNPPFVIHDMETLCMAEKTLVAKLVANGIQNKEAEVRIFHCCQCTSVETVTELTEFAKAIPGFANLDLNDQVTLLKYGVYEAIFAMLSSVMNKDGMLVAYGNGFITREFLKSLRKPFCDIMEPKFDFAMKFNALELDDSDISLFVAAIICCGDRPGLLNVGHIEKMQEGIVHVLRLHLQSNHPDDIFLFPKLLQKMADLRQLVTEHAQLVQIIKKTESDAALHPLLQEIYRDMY

[5] = target: T3, Peroxisome proliferator-activated receptor alpha (Mus musculus) (UniProt P23204); experiment: Agonist activity at mouse PPARalpha at 3000 nM; type: functional
T3 sequence (whole entry): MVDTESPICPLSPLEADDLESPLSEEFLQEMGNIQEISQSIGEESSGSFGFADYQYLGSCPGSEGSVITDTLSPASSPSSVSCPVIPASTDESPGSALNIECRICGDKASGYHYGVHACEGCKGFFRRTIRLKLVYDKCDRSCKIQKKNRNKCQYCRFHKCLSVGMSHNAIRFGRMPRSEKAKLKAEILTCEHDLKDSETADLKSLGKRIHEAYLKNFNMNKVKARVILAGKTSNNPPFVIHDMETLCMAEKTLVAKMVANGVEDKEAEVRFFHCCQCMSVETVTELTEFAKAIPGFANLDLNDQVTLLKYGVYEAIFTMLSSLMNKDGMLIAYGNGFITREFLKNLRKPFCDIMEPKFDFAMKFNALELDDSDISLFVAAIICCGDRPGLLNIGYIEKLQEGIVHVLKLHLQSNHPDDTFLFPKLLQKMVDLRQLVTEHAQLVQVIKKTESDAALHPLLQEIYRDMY

[6] = Agonist activity at hamster PPARalpha; type: functional, Cricetinae; conditions: read-out: EC50
[7] = target: T4, Peroxisome proliferator-activated receptor alpha (Canis lupus familiaris, UniProt Q95N78); experiment: Agonist activity at dog PPARalpha; type: functional; conditions: read-out: EC50
T4 sequence (Q95N78 whole entry): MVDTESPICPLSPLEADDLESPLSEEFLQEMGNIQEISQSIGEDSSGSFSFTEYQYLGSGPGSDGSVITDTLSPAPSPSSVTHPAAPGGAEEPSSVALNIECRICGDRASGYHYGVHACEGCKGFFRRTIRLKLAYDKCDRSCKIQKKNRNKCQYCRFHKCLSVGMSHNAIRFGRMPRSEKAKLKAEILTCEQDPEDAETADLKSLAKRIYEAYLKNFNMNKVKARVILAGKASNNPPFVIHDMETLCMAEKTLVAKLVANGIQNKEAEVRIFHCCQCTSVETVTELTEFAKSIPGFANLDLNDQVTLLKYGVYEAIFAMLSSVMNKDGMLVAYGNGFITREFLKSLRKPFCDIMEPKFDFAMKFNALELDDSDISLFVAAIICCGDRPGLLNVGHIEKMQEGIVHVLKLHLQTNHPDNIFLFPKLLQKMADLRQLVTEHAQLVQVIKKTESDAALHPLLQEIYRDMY

[8] = Oral bioavailability in rat; type: ADME, organism-based; conditions: in vivo
[9] = Plasma clearance in rat; type: ADME, organism-based
[10] = Volume of distribution at steady state in rat; type: ADME, organism-based; conditions: in vivo, read-out: Vdss
[11] = Oral bioavailability in dog; type: ADME, organism-based, Canis lupus familiaris; conditions: in vivo
[12] = Volume of distribution at steady state in dog; type: ADME, organism-based, Canis lupus familiaris; conditions: in vivo, read-out: Vdss
[13] = Volume of distribution at steady state in monkey; type: ADME, organism-based, Macaca mulatta; conditions: rhesus monkey, in vivo; read-out: Vdss
[14] = system: Mus musculus; experiment: Antihyperglycemic activity in db/db mouse assessed as reduction in blood glucose level at 30 mg/kg, po administered once daily for 11 days; type: functional; set-up: scale not given: the % may be the effect or the level left
[15] = AUC in db/db mouse at 30 mg/kg, po administered once daily for 11 days; type: ADME, organism-based; set-up: dose 30 mg/kg, route oral; conditions: plasma
[16] = system: Rattus norvegicus; experiment: Antidiabetic activity in obese insulin-resistant Zucker fa/fa rat assessed as decrease in plasma insulin level at 3 to 150 mg/kg, po once daily for 7 days; type: functional, organism-based
[17] = AUC in obese insulin-resistant Zucker fa/fa rat at 3 mg/kg, po once daily for 7 days; type: ADME, organism-based; set-up: dose 3 mg/kg, route oral; conditions: plasma
[18] = system: Rattus norvegicus; experiment: Toxicity in obese insulin-resistant Zucker fa/fa rat assessed as increase in plasma volume at 100 mg/kg, po once daily for 7 days by Evans blue dye dilution technique; conditions: in vivo, 168 h
[19] = system: Rattus norvegicus; experiment: Toxicity in obese insulin-resistant Zucker fa/fa rat assessed as increase in heart weight volume at 3 to 150 mg/kg, po once daily for 7 days; type: organism-based; set-up: dose 3-150 mg/kg, route oral; conditions: in vivo, 168 h
[20] = system: Mus musculus; experiment: Antihyperglycemic activity in db/db mouse assessed as plasma adiponectin level at 30 mg/kg, po administered once daily for 11 days by RIA; type: functional

In the case of `CC[C@@H](Oc1cccc(-n2c(C)c(C(=O)c3ccc(OC)cc3)c3ccc(OC(F)(F)F)cc32)c1)C(=O)O` [MK-0533], the PB [1] is reported as less than 10 pmol, the PB [2] is reported as less than 10 pmol and the Activity [3] is reported as “inactive”. For the same molecule, the Activity [4] was 33%, the Activity [5] was 53% and the EC50 [6] was 330 nM. The EC50 [7] was 370 nM, the bioavailability [8] was 81% and the clearance [9] was 18.3 mL/min/kg. It also gave a Vd [10] of 1.4 L/kg, a bioavailability [11] of 59% and a Vd [12] of 1.4 L/kg. The Vd [13] was 0.7 L/kg, the Activity [14] was 83% and the AUC at 264 h [15] was 60 µM·h. For the same molecule, the Activity [16] was “Active”, the AUC at 168 h [17] was 6 µM·h and the Activity [18] was “Toxic”. For the same molecule, the Activity [19] was “Non-toxic” and the Activity [20] was 48.1 µg/mL.
